Experimental data as given in patent EP3375430A1, “FRAGRANCE COMPOSITIONS” (Takasago International Corporation, priority 2017, dated 2018).
Blank lines part the entries; values can stand above or below the compound they belong to.

Assay: Amount of fragrance ingredients retained on paper blotter after evaporation (ethanol extraction, GC-MS)
Assay type: physicochemical
Protocol: A fragrance (hereafter fragrance TAK, the formulation of which is shown in table 1) was formulated in a typical Eau de Toilette (EdT1) or in fragrance compositions according to the invention (compositions C1 to C4), as shown in table 2. The amount of individual fragrance ingredients retained on paper substrate (blotter) after set time periods was assessed by the following method.
100µL samples of either EdT1 or compositions C1 to C4 were applied to 4.5cm long standard paper blotters with a microsyringe. Three replicate blotters were prepared for each extraction time. After the appropriate evaporation time each of the 3 blotters was transferred to a 30mL glass bottle. 3mL of ethanol and 50µL of a 1% solution of methyl decanoate in ethanol as an internal standard were added. The bottle was sealed and placed on a roller bed to extract the blotter for 1 hour. A sample of the extracting solution was transferred to a vial which was sealed and analysed by gas chromatography (GC 6890) with a Mass Spectrometer detector (MS 5973) using the method described below. The results of the three replicate measurements were averaged. At exact times the same extraction was repeated on the remaining blotters which were stored on a warm surface at 32°C open to the air to allow evaporation. The gas chromatography conditions were as given below.
• Initial Temp: 50°C • Initial Time: 2 min • Rate: 10°C /min • Final Temp: 280°C • Final Time: 5 min • Run Time: 30 min
• Column: HP-5MS 30m * 0.25mm * 0.25µm • Gas: Helium • Constant Pressure 18.55 psi
• Split mode Ratio 40:1 • Inlet Temp: 250°C
• MS 5973 • Mass range: 35 to 350 • Threshold: 100 • Mass Quad: 150°C • Mass Source: 230°C
To simplify the results the average amount of each fragrance ingredient from the 3 samples measured at time zero was set at 100% and all other measurements were then related to that value so tables 3 to 6 show decreasing amounts of fragrance ingredients as a percentage of the initial amount.
The method of example 1 was repeated using a commercial fragrance (hereafter fragrance COM1, the formulation of which is given in table 7) formulated in a typical Eau de Toilette (EdT2) or in fragrance compositions according to the invention (compositions C5 and C6), as shown in table 8.

[1] = Table 9, fragrance COM1 in C5, T0 + 15 min
[2] = Table 9, fragrance COM1 in C5, T0 + 480 min
[3] = Table 9, fragrance COM1 in C5, T0 +1440 min
[4] = Table 9, fragrance COM1 in C6, T0 + 15 min
[5] = Table 9, fragrance COM1 in C6, T0 + 480 min
[6] = Table 9, fragrance COM1 in C6, T0 +1440 min
[7] = Table 9, fragrance COM1 in EdT2, C5 or C6, T0, set at 100% (normalisation)
[8] = Table 9, fragrance COM1 in EdT2, T0 + 15 min
[9] = Table 9, fragrance COM1 in EdT2, T0 + 480 min
[10] = Table 9, fragrance COM1 in EdT2, T0 +1440 min

amount of fragrance ingredient retained on blotter (percentage of the initial amount) [1]: 85.4% | amount of fragrance ingredient retained on blotter (percentage of the initial amount) [2]: 68.9% | amount of fragrance ingredient retained on blotter (percentage of the initial amount) [3]: 40.11% | amount of fragrance ingredient retained on blotter (percentage of the initial amount) [4]: 75.6% | amount of fragrance ingredient retained on blotter (percentage of the initial amount) [5]: 52.6% | amount of fragrance ingredient retained on blotter (percentage of the initial amount) [6]: 29.9% | amount of fragrance ingredient retained on blotter (percentage of the initial amount) [7]: 100% | amount of fragrance ingredient retained on blotter (percentage of the initial amount) [8]: 81.5% | amount of fragrance ingredient retained on blotter (percentage of the initial amount) [9]: 56.6% | amount of fragrance ingredient retained on blotter (percentage of the initial amount) [10]: 15.42%
Compound: CC1(C)CCC[C@]2(C)[C@H]3CCO[C@]3(C)CC[C@@H]12 [Ambroxan™, (3aR,5aS,9aS,9bR)-3a,6,6,9a-tetramethyl-2,4,5,5a,7,8,9,9b-octahydro-1H-benzo[e][1]benzofuran]

amount of fragrance ingredient retained on blotter (percentage of the initial amount) [1]: 86% | amount of fragrance ingredient retained on blotter (percentage of the initial amount) [2]: 59.8% | amount of fragrance ingredient retained on blotter (percentage of the initial amount) [3]: 28.82% | amount of fragrance ingredient retained on blotter (percentage of the initial amount) [4]: 75.6% | amount of fragrance ingredient retained on blotter (percentage of the initial amount) [5]: 43.6% | amount of fragrance ingredient retained on blotter (percentage of the initial amount) [6]: 20.9% | amount of fragrance ingredient retained on blotter (percentage of the initial amount) [7]: 100% | amount of fragrance ingredient retained on blotter (percentage of the initial amount) [8]: 81.4% | amount of fragrance ingredient retained on blotter (percentage of the initial amount) [9]: 43.9% | amount of fragrance ingredient retained on blotter (percentage of the initial amount) [10]: 13.42%
Compound: CC(C)(C)c1ccc(CCC=O)cc1 [Bourgeonal™, 3-(4-tert-butylphenyl)propanal]

amount of fragrance ingredient retained on blotter (percentage of the initial amount) [1]: 85.8% | amount of fragrance ingredient retained on blotter (percentage of the initial amount) [2]: 45.2% | amount of fragrance ingredient retained on blotter (percentage of the initial amount) [3]: 14.71% | amount of fragrance ingredient retained on blotter (percentage of the initial amount) [4]: 75.4% | amount of fragrance ingredient retained on blotter (percentage of the initial amount) [5]: 33.2% | amount of fragrance ingredient retained on blotter (percentage of the initial amount) [6]: 12.0% | amount of fragrance ingredient retained on blotter (percentage of the initial amount) [7]: 100% | amount of fragrance ingredient retained on blotter (percentage of the initial amount) [8]: 81.5% | amount of fragrance ingredient retained on blotter (percentage of the initial amount) [9]: 30.7% | amount of fragrance ingredient retained on blotter (percentage of the initial amount) [10]: 7.12%
Compound: CC(C=O)Cc1ccc(C(C)C)cc1 (stereo not drawn) [Cyclamen aldehyde]

amount of fragrance ingredient retained on blotter (percentage of the initial amount) [1]: 81.9% | amount of fragrance ingredient retained on blotter (percentage of the initial amount) [2]: 20.5% | amount of fragrance ingredient retained on blotter (percentage of the initial amount) [3]: 2.12% | amount of fragrance ingredient retained on blotter (percentage of the initial amount) [4]: 74.8% | amount of fragrance ingredient retained on blotter (percentage of the initial amount) [5]: 14.7% | amount of fragrance ingredient retained on blotter (percentage of the initial amount) [6]: 1.9% | amount of fragrance ingredient retained on blotter (percentage of the initial amount) [7]: 100% | amount of fragrance ingredient retained on blotter (percentage of the initial amount) [8]: 78.2% | amount of fragrance ingredient retained on blotter (percentage of the initial amount) [9]: 10.6% | amount of fragrance ingredient retained on blotter (percentage of the initial amount) [10]: 4.25%
Compound: CC=CC(=O)C1=C(C)CCCC1(C)C [Damascone beta]

amount of fragrance ingredient retained on blotter (percentage of the initial amount) (Table 3, fragrance TAK in C1, 15 min, 32°C): 81% | amount of fragrance ingredient retained on blotter (percentage of the initial amount) (Table 3, fragrance TAK in C1, 60 min, 32°C): 79% | amount of fragrance ingredient retained on blotter (percentage of the initial amount) (Table 3, fragrance TAK in C1, 120 min, 32°C): 81% | amount of fragrance ingredient retained on blotter (percentage of the initial amount) (Table 3, fragrance TAK in C1, 240 min, 32°C): 86% | amount of fragrance ingredient retained on blotter (percentage of the initial amount) (Table 3, fragrance TAK in C1, 480 min, 32°C): 79% | amount of fragrance ingredient retained on blotter (percentage of the initial amount) (Table 3, fragrance TAK in EdT1, 15 min, 32°C): 88% | amount of fragrance ingredient retained on blotter (percentage of the initial amount) (Table 3, fragrance TAK in EdT1, 60 min, 32°C): 85% | amount of fragrance ingredient retained on blotter (percentage of the initial amount) (Table 3, fragrance TAK in EdT1, 120 min, 32°C): 90% | amount of fragrance ingredient retained on blotter (percentage of the initial amount) (Table 3, fragrance TAK in EdT1, 240 min, 32°C): 98% | amount of fragrance ingredient retained on blotter (percentage of the initial amount) (Table 3, fragrance TAK in EdT1, 480 min, 32°C): 100% | amount of fragrance ingredient retained on blotter (percentage of the initial amount) (Table 3, fragrance TAK in EdT1 or C1, T0, set at 100% (normalisation)): 100% | amount of fragrance ingredient retained on blotter (percentage of the initial amount) (Table 4, fragrance TAK in C2, 15 min, 32°C): 97% | amount of fragrance ingredient retained on blotter (percentage of the initial amount) (Table 4, fragrance TAK in C2, 480 min, 32°C): 77% | amount of fragrance ingredient retained on blotter (percentage of the initial amount) (Table 4, fragrance TAK in EdT1, 15 min, 32°C): 87% | amount of fragrance ingredient retained on blotter (percentage of the initial amount) (Table 4, fragrance TAK in EdT1, 480 min, 32°C): 73% | amount of fragrance ingredient retained on blotter (percentage of the initial amount) (Table 4, fragrance TAK in EdT1 or C2, T0, set at 100% (normalisation)): 100% | amount of fragrance ingredient retained on blotter (percentage of the initial amount) (Table 5, fragrance TAK in C3, 15 min, 32°C): 80% | amount of fragrance ingredient retained on blotter (percentage of the initial amount) (Table 5, fragrance TAK in C3, 60 min, 32°C): 93% | amount of fragrance ingredient retained on blotter (percentage of the initial amount) (Table 5, fragrance TAK in C3, 120 min, 32°C): 93% | amount of fragrance ingredient retained on blotter (percentage of the initial amount) (Table 5, fragrance TAK in C3, 240 min, 32°C): 100% | amount of fragrance ingredient retained on blotter (percentage of the initial amount) (Table 5, fragrance TAK in C3, 480 min, 32°C): 82% | amount of fragrance ingredient retained on blotter (percentage of the initial amount) (Table 5, fragrance TAK in C3, 1440 min, 32°C): 96% | amount of fragrance ingredient retained on blotter (percentage of the initial amount) (Table 5, fragrance TAK in EdT1, 15 min, 32°C): 88% | amount of fragrance ingredient retained on blotter (percentage of the initial amount) (Table 5, fragrance TAK in EdT1, 60 min, 32°C): 85% | amount of fragrance ingredient retained on blotter (percentage of the initial amount) (Table 5, fragrance TAK in EdT1, 120 min, 32°C): 90% | amount of fragrance ingredient retained on blotter (percentage of the initial amount) (Table 5, fragrance TAK in EdT1, 240 min, 32°C): 98% | amount of fragrance ingredient retained on blotter (percentage of the initial amount) (Table 5, fragrance TAK in EdT1, 480 min, 32°C): 100% | amount of fragrance ingredient retained on blotter (percentage of the initial amount) (Table 5, fragrance TAK in EdT1, 1440 min, 32°C): 85% | amount of fragrance ingredient retained on blotter (percentage of the initial amount) (Table 5, fragrance TAK in EdT1 or C3, T0, set at 100% (normalisation)): 100% | amount of fragrance ingredient retained on blotter (percentage of the initial amount) (Table 6, fragrance TAK in C4, 15 min, 32°C): 100% | amount of fragrance ingredient retained on blotter (percentage of the initial amount) (Table 6, fragrance TAK in C4, 60 min, 32°C): 93% | amount of fragrance ingredient retained on blotter (percentage of the initial amount) (Table 6, fragrance TAK in C4, 120 min, 32°C): 96% | amount of fragrance ingredient retained on blotter (percentage of the initial amount) (Table 6, fragrance TAK in C4, 240 min, 32°C): 100% | amount of fragrance ingredient retained on blotter (percentage of the initial amount) (Table 6, fragrance TAK in C4, 480 min, 32°C): 100% | amount of fragrance ingredient retained on blotter (percentage of the initial amount) (Table 6, fragrance TAK in EdT1, 15 min, 32°C): 88% | amount of fragrance ingredient retained on blotter (percentage of the initial amount) (Table 6, fragrance TAK in EdT1, 60 min, 32°C): 85% | amount of fragrance ingredient retained on blotter (percentage of the initial amount) (Table 6, fragrance TAK in EdT1, 120 min, 32°C): 90% | amount of fragrance ingredient retained on blotter (percentage of the initial amount) (Table 6, fragrance TAK in EdT1, 240 min, 32°C): 98% | amount of fragrance ingredient retained on blotter (percentage of the initial amount) (Table 6, fragrance TAK in EdT1, 480 min, 32°C): 100% | amount of fragrance ingredient retained on blotter (percentage of the initial amount) (Table 6, fragrance TAK in EdT1 or C4, T0, set at 100% (normalisation)): 100%
Compound: O=C1CCCCCCCCCCCC(=O)OCCO1 [Ethylene Brassylate]

amount of fragrance ingredient retained on blotter (percentage of the initial amount) [1]: 84.0% | amount of fragrance ingredient retained on blotter (percentage of the initial amount) [2]: 32.8% | amount of fragrance ingredient retained on blotter (percentage of the initial amount) [3]: 5.68% | amount of fragrance ingredient retained on blotter (percentage of the initial amount) [4]: 74.2% | amount of fragrance ingredient retained on blotter (percentage of the initial amount) [5]: 23.3% | amount of fragrance ingredient retained on blotter (percentage of the initial amount) [6]: 5.2% | amount of fragrance ingredient retained on blotter (percentage of the initial amount) [7]: 100% | amount of fragrance ingredient retained on blotter (percentage of the initial amount) [8]: 79.2% | amount of fragrance ingredient retained on blotter (percentage of the initial amount) [9]: 16.4% | amount of fragrance ingredient retained on blotter (percentage of the initial amount) [10]: 3.77%
Compound: Methyl ionone gamma
